This is an account of results in patent US8524193B2, “Non-invasive diagnostic imaging technology for mitochondria using radiolabeled lipophilic salts” (The Johns Hopkins University, priority 2002, dated 2013).

Data set [1] is described as follows: C-11-TPMP uptake kinetics in the myocardium (PET). Type of data set: in vivo. The conditions noted are these: dog, five-fold increase (by adenosine) in flow. Here is the method:
We have examined the performance of C-11-triphenyl phosphonium cation (TPMP) for assessing regional myocardial flow in dog using PET (Kraus, 1994).
Methods: Four mCi of C-11-TPMP were introduced i.v., and dynamic images of increasing duration (15 sec to 20 min) were acquired over a total time of 85 min. Images were acquired on the GE 4096+ PET scanner (15 slices, 6.5 mm slice thickness). Images were reconstructed using backprojection, and corrected for attenuation. A detailed description of methods appears in Kraus, 1994. These images show excellent visualization of the myocardium with a high contrast to the surrounding lung tissue. During the plateau time period heart/lung ratio was >14:1, and heart/blood >100:1. Under baseline conditions (flow=69 ml/min/100 g), the extraction fraction is very high (91%). […] To investigate the relationship between myocardial blood flow and C-11-TPMP uptake in the heart, the LAD was occluded and the C-11-TPMP accumulation in tissue samples compared to microsphere determined regional myocardial blood flow. A significant correlation (r=0.93, p<0.01) was found at 5 min after LAD occlusion (FIG. 12). The non-infracted/infracted myocardium ratio was 12.1±2.4. […] Thallium 201 extraction under baseline flow is about 80%, decreasing to about 60% for five-fold increases in flow rate. […]

Data set [2] can be described thus: Stability of F-18-FBnTP in plasma after injection into mice (column switch HPLC). Type of data set: in vivo. The method, then:
Radiochemical purity of F-18-FBnTP and its stability in vivo was measured by chromatography.
Samples of mouse plasma were obtained from heparinized whole bloodcollected 5, 15 and 30 min p.i. of the tracer. To eliminate binding to plasma proteins, the plasma was added to solid urea to give a final concentration of 8M urea. The plasma-urea was loaded into a column switch HPLC system (Hilton 2000), in which the plasma passes through a small capture column (Oasis Sorbent, Waters Corp.), which retains lipophilic solutes, while polar species fail to bind and are detected as they pass through a positron detector. After four minutes, the capture column is free of plasma proteins and polar species. Then, the contents of the capture column was swept onto an analytical column (Prodigy ODS-3, Phenomenex) by 40% acetonitrile, 60% triethylamine acetate buffer pH 4.1 at 1 mL/min, where separation of the parent compound and lipophilic metabolites occurs. The effluent from the analytical column also passes through the positron flow detector. The proportion of each species is determined from the area under each chromatographic peak. Results: Radiochemical purity of the 18F-labeled FBnTP was more than 95%. […] FIG. 1 depicts the chromatogram of plasma collected 30 min p.i., and the parental compound incubated for a similar time period (30 min) in buffered saline. […]

Data set [3] concerns Human lung carcinoma H549 cells. Nature of the data set: Mitochondria membrane potential (MMP)-dependent cellular uptake with CCCP. Type of data set: cell-based. The conditions noted are these: CCCP 30, 60, 90, 120 μM, 30 min. Here is the method:
The extent of MMP-dependent cellular uptake of F-18-FBnTP was assessed using CCCP, a known protonophore that selectively abolishes the MMP.
Methods: Human lung carcinoma H549 cells ([…]) were incubated with 0.1 μCi/ml F-18-FBnTP for 30 min. Samples of the suspension (1 mL) were transferred to Eppendorf's vials and placed in a 370 C bath. Varying concentrations (30, 60, 90, 120 μM) of CCCP were added to the suspension. After 30 min of incubation with CCCP, the Eppendorf vials were centrifuged for 1 min, and activity in pellet and supernatant was immediately counted.

Data set [4] can be described thus: F-18-FBnTP uptake kinetics in the myocardium (PET). Type of data set: in vivo, Mongrel dogs. The conditions noted are these: dog PET. Here is the method: Methods: Mongrel dogs (BW=35 kg) were injected with 3-4 mCi of F-18-FBnTP. Images were acquired on a GE 4096+ scanner (15 slices, 6.5 mm slice thickness). PET scans of increasing duration (15 sec to 20 min) were acquired over a total time of 85 min post-injection. Arterial blood samples (0.5 ml in volume) were collected every few seconds for the first 3 minutes and at gradually increasing intervals (1 to 10 min) for the remaining time of the imaging study. The vascular and myocardial kinetics of F-18-FBnTP was analyzed using the ROI method.

Data set [5] in a line: F-18-FBnTP myocardial accumulation in pacing model of heart failure (PET). Type of data set: in vivo, mongrel dog. The method, then: Pacing of the mongrel dog heart at high rate (210 bpm) for a four weeks is a well-established model of heart failure. The advantage of this model is that the cardiomyopathy solely involve apoptosis without stenosis of coronary artery or related ischemia. Therefore, in this model the affect of apoptosis on FBnTP uptake can be dissected.
Methods: Preparation of dog and data acquisition was performed as described above. Mongrel dog was installed with a pacemaker in the rib case and underwent FBnTP PET scan (presented above). Following the baseline scan, the dog_s heart was paced at a rate of 210 bpm for 4 weeks and a second scan was acquired.
FIG. 18 depicts co-registered images before and after pacing. […] Quantitation of FBnTP in the myocardium was performed using region of interest placed on co-registered myocardial images, whose activity was normalized to the injected dose, before and after pacing. An example for ROI placement is illustrated in FIG. 18.

The nature of data set [6]: Stability of fluorination: total bone uptake. The conditions noted are these: mice, 5 and 30 min p.i., compared to mice injected with F-18 only; listed as F-18-FBnTP. Format: in vivo. The method, then:
Methods: Mice were injected via the tail vein with 25 μCi of F-18-PhC; 5 and 30 min p.i., the left or right femur bone was removed, and bone radioactivity together with standard (1:100 of injected dose) were counted in a gamma counter. A parallel group of mice was injected with free fluorides (F-18). Three mice of each group were studied at each time point. Radioactivity is represented as percentage of injected dosed (% ID) and total bone uptake was calculated as activity in femur bone ×20.

Data set [7] concerns orthotopic NMU mammary tumor. In words: Uptake in NMU mammary tumor versus healthy gland and FCA inflammation. Format: in vivo. The conditions noted are these: NMU-bearing female rats, 60 min after injection, normalized to muscle. An excerpt:
The carcinogen nitrosomethyl urea (NMU) induces carcinoma tumors solely in the mammary gland of female rats. Therefore, the orthotopic NMU mammary tumor is an excellent model for evaluating tracer tumor selectivity by contrasting radioactivity accumulating in mammary gland infested with carcinoma cells and healthy mammary gland. Freund Complete Adjuvant (FCA) is a well_studied inflammation agent in rats Induction of FCA inflammation in NMU-bearing rats allows for direct quantitation of tracer capability to differentiate carcinoma from inflammation.
(§1) 0.1 ml of nitrosomethyl urea (NUM) was introduced i.p in female rats (150 g). When tumor reached an approximate size of 1 to 1.5 cm, FCA was injected (0.15 ml) to the hind limb footpad. Uptake assays were carried out 3 days thereafter. F-18-FBnTP (0.25 mCi) was injected via tail vein. Sixty minutes later tumor, inflamed tissue and healthy muscle tissue of the opposite limb (control) were collected on ice, weighed and counted in a gamma counter together with standards.

The subject of the next data set is FCA-induced inflammation. In words: Accumulation in FCA-induced inflammation tissue and healthy muscle. Format: in vivo, rats. The conditions noted are these: for Inf/Control: ratio inflammation tissue to healthy muscle, 3 days after FCA; for Accumulation, Control: rats, healthy muscle, 3 days after administration of FCA. The method, then:
as §1
The accumulation of the novel F-18-phosphonium cations, F-18-FBnTP and F-18-fluoropropyl triphenyl phosphonium (F-18-FPTP) in comparison with F18-FDG in FCA-induced inflammation and healthy tissue is presented in Table 2. Induction of inflammation and activity counting were carried out as described above. Fluorophosphonium compounds accumulate in inflammation much less than FDG (Table 2). These date provide strong evidence to our claim that F-18-phosphonium compound are suitable for differentiation of tumor from inflammation and may resolve a major drawback of F-18-FDG. Table 2: Accumulation of Fluorophosphonium Compounds (FBnTP and FPTP) FDG in inflammation tissue and healthy muscle 3 days after administration of FCA.

The conditions of data set [8]: cited from earlier work.
Where [9] appears, read: five-fold increases in flow rate / high flow rates.

Several values for one entry are separate records, joined by “and”; a condition that tells them apart may be missing. Equal values may be shown once. Read-outs that look alike come from different tables or passages of the source.

For `[11CH3][P+](c1ccccc1)(c1ccccc1)c1ccccc1` [[11C]TPMP, C-11-triphenylmethyl phosphonium], the “decrease of the extraction fraction” value in data set [1] is recorded as 39%.

Turning to `[18F]c1ccc(C[P+](c2ccccc2)(c2ccccc2)c2ccccc2)cc1` [[18F]FBnTP, F-18-fluorobenzyl triphenyl phosphonium], in data set [2] (mice, plasma radiochromatograms), the “stable after intravenous injection of the tracer in vivo” value was “more than 30 min”. For the same compound, the “single radio-peak in plasma chromatography, share of total activity” value in data set [2] (mouse plasma collected 5, 15 and 30 min p.i., no other peak observed) was 97%. For the same compound, in data set [3], the “MMP-dependent share of cellular uptake” value is on record as 86%. The “washout from the blood pool” value in data set [4] (arterial blood samples) was “rapid washout”. In data set [4] (persisted for the remaining scanning time (85 min)), the “time to equilibrium of accumulation in the myocardium” value was “within a few minutes”. Further, the “Ratio P/B” value in data set [5] (Slices 36-37, ROI1) was found to be 0.62; in data set [5] (Slices 36-37, ROI2) it was 0.91; in data set [5] (Slices 36-37, ROI3) it was 0.85; in data set [5] (Slices 46-49, ROI1), 0.56; in [5] (Slices 46-49, ROI2), 0.76; in data set [5] (Slices 46-49, ROI3), 0.82. Further, the “decrease in uptake in the inferior wall after pacing” value in data set [5] (dog, 210 bpm for 4 weeks, p<0.001) is reported as 40-60%. For the same compound, the total bone uptake entry in [6] is “minimal bone uptake”. The “uptake in tumor relative to healthy gland” value in data set [7] is 4 times. The “uptake in tumor relative to inflammation” value in data set [7] (FCA inflammation 3 days) stood at 3 times. The Inf/Control in the data set on FCA-induced inflammation is recorded as 0.42. In the data set with FCA-induced inflammation, the “Accumulation, Control” value was found to be 0.76 ± 0.21 % ID/g tissue.

For the compound `[18F]CCC[P+](c1ccccc1)(c1ccccc1)c1ccccc1` [[18F]FPTP, [^18F]3-fluoropropyltriphenyl-phosphonium ion], in the data set on FCA-induced inflammation, the Inf/Control amounted to 0.25 and the “Accumulation, Control” value came out at 0.29 ± 0.06 % ID/g tissue.

`OC[C@H]1OC(O)[C@H]([18F])[C@@H](O)[C@@H]1O` (some centres unmarked) [[^18F]FDG, reference compound]: in the data set with FCA-induced inflammation, the Inf/Control was 1.20 and 2.12; the “Accumulation, Control” value is 1.05 ± 0.35 % ID/g tissue and 0.68 ± 0.14 % ID/g tissue.

`[99Tc].[C-]#[N+]CC(C)(C)OC.[C-]#[N+]CC(C)(C)OC.[C-]#[N+]CC(C)(C)OC.[C-]#[N+]CC(C)(C)OC.[C-]#[N+]CC(C)(C)OC.[C-]#[N+]CC(C)(C)OC` [[^99mTc]MIBI, Tc-99m-sestamibii]: the myocardial extraction entry in data set [8] (baseline / normal flow) was “about 60%”; in data set [8] (setting [9]) it was 40%.

As to Thallium 201, the values for the myocardial extraction result in [8] (baseline / normal flow) and in data set [8] (setting [9]) were “about 80%” and “about 60%”, respectively.
